# Where two headings read alike, the source gives them in different places.
# How the values were obtained:
# Format in all cases: in vivo
# Kochia (Kochia scoparia) [1] = assay: Test A postemergence; conditions: Bassia scoparia, post-emergence, 240 h; for pest or weed control at 125 g/ha: 125 g ai/ha, read-out: Kochia plant response rating (0 to 100 scale); for pest or weed control at 500 g/ha: 500 g ai/ha, visual injury, 0 to 100 scale (0 no effect, 100 complete control), approx. 10 d, read-out: Plant response rating, Kochia
# Procedure, shortened: (§1)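 Seeded soil received test chemicals as a preemergence directed spray, and seedlings at one to two leaves, 2–10 cm tall, received them postemergence, in a non-phytotoxic, surfactant-containing solvent mixture. Pots were held in a greenhouse for approximately 10 d, then rated for injury from 0, no effect, to 100, complete control.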
# corn (Zea mays) = assay: Test A postemergence; conditions: Zea mays, post-emergence, 240 h; for plant injury at 125 g/ha: 125 g ai/ha, read-out: Corn plant response rating (0 to 100 scale); for Corn plant response rating (crop injury, 0 = no effect, 100 = complete kill) at 500 g/ha: 500 g ai/ha, visual injury, 0 to 100 scale (0 no effect, 100 complete control), approx. 10 d
# Procedure, shortened: as §1
# [2] = tested on: giant foxtail (Setaria faberii); assay: Test A postemergence; conditions: Setaria faberi, post-emergence, 240 h; for pest or weed control at 125 g/ha: 125 g ai/ha, read-out: Foxtail, Giant plant response rating (0 to 100 scale); for pest or weed control at 500 g/ha: 500 g ai/ha, visual injury, 0 to 100 scale (0 no effect, 100 complete control), approx. 10 d, read-out: Plant response rating, Foxtail, Giant
# Procedure, shortened: as §1
# [3] = tested on: ryegrass, Italian (Italian ryegrass, Lolium multiflorum); assay: Test A postemergence; conditions: Lolium multiflorum, post-emergence, 240 h; for pest or weed control at 125 g/ha: 125 g ai/ha, read-out: Ryegrass, Italian plant response rating (0 to 100 scale); for pest or weed control at 500 g/ha: 500 g ai/ha, visual injury, 0 to 100 scale (0 no effect, 100 complete control), approx. 10 d, read-out: Plant response rating, Ryegrass, Italian
# Procedure, shortened: as §1
# [4] = tested on: pigweed (Amaranthus retroflexus); assay: Test A postemergence; conditions: Amaranthus retroflexus, post-emergence, 240 h; for pest or weed control at 125 g/ha: 125 g ai/ha, read-out: Pigweed plant response rating (0 to 100 scale); for pest or weed control at 500 g/ha: 500 g ai/ha, visual injury, 0 to 100 scale (0 no effect, 100 complete control), approx. 10 d, read-out: Plant response rating, Pigweed
# Procedure, shortened: as §1
# [5] = tested on: Galium (catchweed bedstraw, Galium aparine); assay: Test A postemergence; conditions: Galium, post-emergence, 240 h; for pest or weed control at 125 g/ha: 125 g ai/ha, read-out: Galium plant response rating (0 to 100 scale); for pest or weed control at 500 g/ha: 500 g ai/ha, visual injury, 0 to 100 scale (0 no effect, 100 complete control), approx. 10 d, read-out: Plant response rating, Galium
# Procedure, shortened: as §1
# [6] = tested on: ragweed (common ragweed, Ambrosia elatior); assay: Test A postemergence; conditions: Ambrosia artemisiifolia, post-emergence, 240 h; for pest or weed control at 125 g/ha: 125 g ai/ha, read-out: Ragweed plant response rating (0 to 100 scale); for pest or weed control at 500 g/ha: 500 g ai/ha, visual injury, 0 to 100 scale (0 no effect, 100 complete control), approx. 10 d, read-out: Plant response rating, Ragweed
# Procedure, shortened: as §1
# [7] = tested on: barnyardgrass (Echinochloa crus-galli); assay: Test A postemergence; conditions: Echinochloa crus-galli, post-emergence, 240 h; for pest or weed control at 125 g/ha: 125 g ai/ha; for pest or weed control at 500 g/ha: 500 g ai/ha, visual injury, 0 to 100 scale (0 no effect, 100 complete control), approx. 10 d, read-out: Plant response rating, Barnyardgrass
# Procedure, shortened: as §1
# [8] = tested on: blackgrass (Alopecurus myosuroides); assay: Test A postemergence; conditions: Alopecurus myosuroides, post-emergence, 240 h; for pest or weed control at 125 g/ha: 125 g ai/ha, read-out: Blackgrass plant response rating (0 to 100 scale); for pest or weed control at 500 g/ha: 500 g ai/ha, visual injury, 0 to 100 scale (0 no effect, 100 complete control), approx. 10 d, read-out: Plant response rating, Blackgrass
# Procedure, shortened: as §1
# Kochia (Kochia scoparia) [9] = assay: Test A preemergence; conditions: Bassia scoparia, pre-emergence, 240 h, preemergence, 0 to 100 scale where 0 is no effect and 100 is complete control, read-out: Kochia plant response rating; for pest or weed control at 125 g/ha: 125 g ai/ha, visual injury rating, approximately 10 d; for pest or weed control at 500 g/ha: 500 g ai/ha
# Procedure, shortened: as §1
# [10] = tested on: giant foxtail (Setaria faberii); assay: Test A preemergence; conditions: Setaria faberi, pre-emergence, 240 h, preemergence, 0 to 100 scale where 0 is no effect and 100 is complete control, read-out: Foxtail, Giant plant response rating; for pest or weed control at 125 g/ha: 125 g ai/ha, visual injury rating, approximately 10 d; for pest or weed control at 500 g/ha: 500 g ai/ha
# Procedure, shortened: as §1
# [11] = tested on: ryegrass, Italian (Italian ryegrass, Lolium multiflorum); assay: Test A preemergence; conditions: Lolium multiflorum, pre-emergence, 240 h, preemergence, 0 to 100 scale where 0 is no effect and 100 is complete control, read-out: Ryegrass, Italian plant response rating; for pest or weed control at 125 g/ha: 125 g ai/ha, visual injury rating, approximately 10 d; for pest or weed control at 500 g/ha: 500 g ai/ha
# Procedure, shortened: as §1
# [12] = tested on: pigweed (Amaranthus retroflexus); assay: Test A preemergence; conditions: Amaranthus retroflexus, pre-emergence, 240 h, preemergence, 0 to 100 scale where 0 is no effect and 100 is complete control, read-out: Pigweed plant response rating; for pest or weed control at 125 g/ha: 125 g ai/ha, visual injury rating, approximately 10 d; for pest or weed control at 500 g/ha: 500 g ai/ha
# [13] = tested on: ragweed (common ragweed, Ambrosia elatior); assay: Test A preemergence; conditions: Ambrosia artemisiifolia, pre-emergence, 240 h, preemergence, 0 to 100 scale where 0 is no effect and 100 is complete control, read-out: Ragweed plant response rating; for pest or weed control at 125 g/ha: 125 g ai/ha, visual injury rating, approximately 10 d; for pest or weed control at 500 g/ha: 500 g ai/ha
# Procedure, shortened: as §1
# [14] = tested on: barnyardgrass (Echinochloa crus-galli); assay: Test A preemergence; conditions: Echinochloa crus-galli, pre-emergence, 240 h, preemergence, 0 to 100 scale where 0 is no effect and 100 is complete control, read-out: Barnyardgrass plant response rating; for pest or weed control at 125 g/ha: 125 g ai/ha, visual injury rating, approximately 10 d; for pest or weed control at 500 g/ha: 500 g ai/ha
# Procedure, shortened: as §1
# [15] = postemergence, visual injury vs untreated controls after approx. 10 d, 0 = no effect, 100 = complete control
# [16] = Postemergence, visual rating about 10 d after treatment
Compound,pest or weed control at 500 g/ha (Kochia (Kochia scoparia) [1]; Postemergence),"Corn plant response rating (crop injury, 0 = no effect, 100 = complete kill) at 500 g/ha (corn (Zea mays); Postemergence)",pest or weed control at 500 g/ha ([2]; Postemergence),pest or weed control at 500 g/ha ([3]; Postemergence),pest or weed control at 500 g/ha ([4]; Postemergence),pest or weed control at 500 g/ha ([5]; Postemergence),pest or weed control at 500 g/ha ([6]; Postemergence),pest or weed control at 500 g/ha ([7]; Postemergence),pest or weed control at 500 g/ha ([8]; Postemergence),pest or weed control at 125 g/ha (Kochia (Kochia scoparia) [9]),pest or weed control at 500 g/ha (Kochia (Kochia scoparia) [9]),pest or weed control at 125 g/ha [10],pest or weed control at 500 g/ha [10],pest or weed control at 125 g/ha [11],pest or weed control at 500 g/ha [11],pest or weed control at 125 g/ha [12],pest or weed control at 500 g/ha [12],pest or weed control at 125 g/ha [13],pest or weed control at 500 g/ha [13],pest or weed control at 125 g/ha [14],other results
CN1C[C@H](c2ccc(C(F)F)cc2)[C@@H](C(=O)Nc2ccc(F)c(F)c2F)C1=O [Compound 1260],70%,90%,90%,80%,70%,70%,70%,90%,80%,80%,90%,90%,90%,50%,60%,90%,90%,80%,90%,90%,"pest or weed control at 125 g/ha (Kochia (Kochia scoparia) [1]; [15]): 60%; plant injury at 125 g/ha (corn (Zea mays); [15]): 90%; pest or weed control at 125 g/ha [2, 15]: 80%; pest or weed control at 125 g/ha [3, 15]: 60%; pest or weed control at 125 g/ha [4, 15]: 50%; pest or weed control at 125 g/ha [5, 15]: 70%; pest or weed control at 125 g/ha [6, 15]: 50%; pest or weed control at 125 g/ha ([7]; postemergence, visual injury vs untreated controls after approx. 10 d, 0 = no effect, 100 = complete control, read-out: Barnyardgrass plant response rating (0 to 100 scale)): 90%; pest or weed control at 125 g/ha [8, 15]: 70%; pest or weed control at 500 g/ha [14]: 100%"
Cc1nc([C@H]2CN(C)C(=O)[C@@H]2C(=O)Nc2cccc(F)c2F)cs1 [Compound 1281],30%,0%,30%,0%,0%,50%,0%,80%,0%,0%,60%,40%,90%,0%,20%,30%,40%,0%,60%,40%,"pest or weed control at 125 g/ha (Kochia (Kochia scoparia) [1]; [16]): 0%; plant injury at 125 g/ha (corn (Zea mays); [16]): 0%; pest or weed control at 125 g/ha [2, 16]: 20%; pest or weed control at 125 g/ha [3, 16]: 0%; pest or weed control at 125 g/ha [4, 16]: 0%; pest or weed control at 125 g/ha [5, 16]: 0%; pest or weed control at 125 g/ha [6, 16]: 0%; pest or weed control at 125 g/ha ([7]; Postemergence, visual rating about 10 d after treatment, read-out: Barnyardgrass plant response rating (0 to 100 scale, 0 no effect, 100 complete control)): 20%; pest or weed control at 125 g/ha [8, 16]: 0%; pest or weed control at 500 g/ha [14]: 90%"
